In a melting point compilation (Tetko et al.; mined from patent text by program, amines drawn as free bases though some values may be those of a salt):

melting point [°C] | SMILES
169 to 172 | C=CC1(F)CN(C2CCCC2)c2nc(Nc3ccc(C(=O)NC4CCCNC4)cc3OC)ncc2N(C)C1=O (stereo not drawn)
148 to 150 | Cc1[nH]c(C(=O)N2CC=CN2)c(C)c1-c1nc2ccc(C(=O)c3ccccc3)cc2[nH]1
114 to 116 | CC(C)(C)COC(=O)Oc1cc(Cl)nnc1-c1ccc(Br)cc1
124 to 125 | O=C(N1CCN(c2ccccc2)CC1)N1CC(Oc2ccc(F)cc2)C1
99.7 to 99.8 | Ic1ccc(N2CCCC2)cc1
106 to 108 | O=C(O)Cc1ccccc1SCc1cc(F)ccc1F
148 | O=[N+]([O-])c1cccc2c(CO)ccnc12
95 to 96 | O=C(Cl)c1ccc(Cl)cc1[N+](=O)[O-]
170 to 171 | O=C1c2ccccc2C(=O)N1C/C=C/COc1ccc(-n2ccnc2)cc1
142 to 143 | CNC(=O)c1cccc(NC(=O)CCc2ccccc2)c1
128 to 130 | CC(=O)n1nc(-c2cnccn2)nc1-c1cnccn1
130 to 132 | COc1ccc2cc(-c3cc4c(cc3N)OCO4)ccc2c1
158 to 159 | COc1ccc(COc2nc(C3CC3)c3cc(-c4cccc(Cl)c4)ccc3n2)cc1
213 to 216 | COc1ccc(CCN(C)C)c2[nH]c(=S)[nH]c12
93.6 | CC(C)OC(=O)C(C(=O)OC(C)C)=C1SC2C(S1)N(C)CCN2C (stereo not drawn)
101 | CNC(=O)[C@@H](NC(=O)[C@@H](CC(C)C)C(C(=O)O)C(=O)O)C(C)(C)C
157 to 158 | CC(=NO)C12CCCC(C1)C1CCC2C1 (stereo not drawn)
146 to 151 | Cc1ncc(CO)c(CN(C)C)c1O
120 to 122 | COc1ccc2cc(SCCC(=O)O)n(C)c2c1
94 to 96 | CN(C)C(=O)C(C)(C)n1ccc(-c2cc(Cl)ccc2Cl)n1
141 to 142 | CCOC(=O)COc1cccc2nc3c(c(N)c12)CCCC3
44 to 46 | CCCCCCCCNC(=O)Oc1ccc(Oc2ccccc2)cc1
117 to 118 | CSCC(=O)[C@H](Cc1ccccc1)NC(=O)[C@H](CC(C)C)NC(=O)OC(C)(C)C

melting point [°C] | SMILES
155 to 157 | O=C1CC2(CCCC2)CC(=O)N1CCCCc1ccncc1
86 to 90 | C[C@]12CC[C@]3(C)C(O)CC[C@H]3[C@@H]1CCC1=C2CC=C(O)C1 (stereo partly drawn)
74 to 75 | COC(=O)Cc1cn(-c2ccccc2)nc1OCc1ccccc1
75 to 78 | O=C(O)[C@H](Cc1ccc(OCc2ccccc2)cc1)NS(=O)(=O)c1ccc(N2CCC(c3ccccc3)CC2)cc1
111 | Cc1cc(C)c(S(=O)(=O)N2CCCC2c2ccc(F)cc2)c(C)c1 (racemic)
90 to 93 | O=C(O)c1cc(OC(F)(F)F)ccc1[N+](=O)[O-]
78.5 to 79.5 | CCC(=O)c1ccsc1N(C)C(C)=O
97 to 99 | O=[N+]([O-])c1cnn(-c2c(Cl)cc(C(F)(F)F)c(Cl)c2Cl)c1Br
206 to 210 | CC(=O)Nc1ccc(Cl)c2c1C(=O)C(NC(C)=O)CN2C(C)=O (stereo not drawn)
125 | COC(=O)c1ccc(C#N)c(OC)n1
152 to 156 | CCOCc1nc2c(N)nc3cc(-c4ccccc4)ccc3c2n1CC(C)(C)NC(=O)NC1CCCCC1
185 to 186 | COC[C@](C#N)(C(=O)NCC(C)(C)C)[C@H](c1ccccc1OC)c1cccc2ccccc12 (relative stereo)
138 to 141 | CC[C@H](Nc1nc(Nc2cccc(NS(C)(=O)=O)c2)nc2[nH]cnc12)c1ccccc1
135 to 136 | Cc1nn(CCC(C)C)c(C)c1CC(=O)O
129 to 130 | CC[C@H](C)[C@H](Nc1nc(OC)ns1)C(=O)N1CCC[C@H]1C(=O)OC
183 to 184 | CCNC(=O)c1sc(-n2ccc(O)cc2=O)cc1C
153 to 156 | CC(C)CC(NC(=O)C(NCc1ccccc1)C(C)C)C(=O)NC(CCCCNC(=O)OCc1ccccc1)C(=O)Oc1cccc2ccccc12 (stereo not drawn)
65 to 66.5 | N#CC1c2ccccc2COc2ccccc21 (stereo not drawn)
145 to 146 | CCC(CO)(CO)NC(=O)Nc1ccccc1CCc1cc(C(C)(C)C)c(O)c(C(C)(C)C)c1
128 to 131 | COc1cc2c(-c3ccnc(NN)c3)c(CO)c(CO)cc2cc1OC(C)C
106 | Clc1ccc(C(Cn2cncn2)OCc2ccccc2Cl)c(Cl)c1 (stereo not drawn)
265 to 267 | Cc1c(-c2ccncc2)[nH]c(-c2ccncc2)c1C(=O)OC(C)(C)C
263 to 266 | CC1(C)CCC2(C(=O)O)CCC3(C)C(=CCC4C5(C)Cc6c(n[nH]c6N)C(C)(C)C5CCC43C)C2C1 (stereo not drawn)

melting point [°C] | SMILES
122 to 123 | Cc1ccc2ccc(=O)oc2c1C
118 | CCc1nnc(-c2ccc(OC)cc2)n1-c1ccccc1
61 to 62 | COC(=O)CSCC(NC(=O)OC(C)(C)C)c1ccc(F)cc1 (stereo not drawn)
155 to 160 | COC(=O)C(=O)Nc1ccc(C#N)c(NC(=O)C(=O)OC)c1
> 350 | Cn1c2ccc(F)cc2c(=O)n2nc(C(N)=O)cc12
173 to 175 | O=C(CBr)Nc1c(C(F)(F)F)cc(OCc2ccccc2)cc1C(F)(F)F
90 to 91 | CCOC(=O)/C=C/c1ccc(OCCc2nc(-c3cccc(C)c3)oc2C)cc1
211 to 212 | CN(C)S(=O)(=O)c1cc2c(c(C(=O)O)c1)OC(C)(C)C2
> 95 | CCCCc1nnc(C(=O)N(C)Cc2ccccc2)n1Cc1ccc(-c2ccccc2-c2nnn[nH]2)cc1
200 to 207 | O=[N+]([O-])c1ccc2c([N+](=O)[O-])c(O)c(O)cc2c1
255 | Cc1cc(-c2ncn3c(C(F)(F)F)cc(-c4ccc(F)c(Cl)c4)nc23)ccn1
107 to 108 | COCOc1cc(OC)ccc1C(=O)c1ccc(OCc2nc(-c3ccccc3)oc2C)cc1C
167 to 168 | N#Cc1ccccc1-c1cccc(-c2cnc3nc(C(F)(F)F)cnn23)c1F
90 to 95 | CCc1c(C(=O)NCCCCCCC(=NOCCN)c2ccc(C(F)(F)F)cc2)nc(-c2ccccc2Cl)n1-c1ccc(Cl)cc1
240 to 241 | CC(CCNC1=Nc2ccc(Br)c3cccc1c23)n1ccnc1 (stereo not drawn)
82 to 84 | CC(C)c1ccc(O)c(C(C)C)c1NC(=O)CN1CCN(CCSc2nc3cccc(C(F)(F)F)c3o2)CC1
108 to 109 | CCOC(=O)C1=C(C=O)Nc2ccnc(OC(C)C)c2C1c1ccccc1C(F)(F)F (stereo not drawn)
129 to 130 | CC1(Cc2ccc(Br)cc2)C(=O)N(c2cc(Cl)cc(Cl)c2)c2ccccc21 (stereo not drawn)
80 to 81 | CSc1ccc2ccc(Br)cc2c1
216 to 217 | Cn1c(C(F)(F)F)cc(=O)n(-c2ccc(Cl)c(C=C(Cl)C(=O)O)c2)c1=O
143 to 145 | CC#CCOc1ccc(S(=O)(=O)N(C)C(CCCSc2ccc(Cl)cc2)(NC)C(=O)O)cc1 (stereo not drawn)
85 to 87 | CCCCCCCCC(O)C=Cc1cccc(Oc2cccc(C(=O)O)c2)n1 (racemic)
186 to 187 | O=C(O)Cn1cccc(NS(=O)(=O)Cc2ccccc2)c1=O

melting point [°C] | SMILES
238 | COc1cc(-c2cnc3[nH]cc(C(=O)O)c3n2)cc(OC)c1OC
100 to 105 | CONC(=O)c1ccccc1SCc1ccccc1
227 to 228 | Cc1cc2c(-c3ccccc3)c(CCNC(=O)OCc3ccccc3)n(C)c(=O)c2cc1C
211 to 214 | Cc1ccc2c(c1)c1c(n2C(=O)c2ccc(Cl)cc2)CCC(C(=O)O)C1 (stereo not drawn)
81 to 84 | O=C(O)Cc1ccccc1Oc1cccc(F)c1
129 | C#CCOc1cccc(C)c1S(N)(=O)=O
98 to 101 | COC=C(C(=O)OC)N(C)c1ncnc(-c2ccccc2)n1
64 to 69 | CCc1nc2c(C)cc(C)nc2n1Cc1ccc(C(CCNS(=O)(=O)C(F)(F)F)c2ccccc2)cc1 (stereo not drawn)
104 to 105 | CC(=O)c1ccc(-c2cccnc2)s1
124 to 125 | CS(=O)(=O)c1cc(CC(=O)O)cc2c1NC(C(F)(F)F)CC2 (stereo not drawn)
35 | ClCCCCCCCCOc1ccc2ccccc2c1
266 to 268 | O=C1C(=O)c2ccccc2C2=C1SCC1(CCN(C(=O)c3nc4ccccc4[nH]3)CC1)O2
87 to 100 | CC(C)(CCCCCCCCCCC(C)(C)C(O)C(=O)O)C(O)C(=O)O (stereo not drawn)
76 to 78 | CCOC(=O)c1ccc2c(c1)CCC(COS(=O)(=O)c1ccc(C)cc1)C2 (stereo not drawn)
98 to 101 | COc1ccc(C(=O)N2CCN(c3ccc(N)c(CCC(=O)O)c3)CC2)cc1OC
89 to 92 | Cc1cccc(-c2n[nH]cc2-c2ccc(F)c(-c3csc(CO)n3)c2)n1
179 to 183 | COc1ccc2c(c1)c1c(n2Cc2ccccc2)CCCC1C(=O)O (stereo not drawn)
170 to 174 | Cn1c(=O)c(-c2ccc(Cl)cc2Cl)cc2c3cc(-c4cnco4)ccc3n(C)c21
123 to 124 | COc1cc(OC)cc(C2=N[C@H]3CCN(C)C[C@H]3c3ccccc32)c1 (relative stereo)
153 to 154 | CCN(CC)C(=O)n1cc(Cc2ccc(C(=O)NS(=O)(=O)c3ccccc3C)cc2OC)c2cc(C(=O)NCC(C)CC(F)(F)F)ccc21 (stereo not drawn)
55 | [N-]=[N+]=Nc1ccc(C(=O)OCCOC(=O)C[C@@H](C(=O)O)n2c3ccccc3c3ccccc32)cc1

SMILES | melting point [°C]
COC(=O)N1C(C)=NC(C)=C(C(=O)NCCCN2CCC(C(=O)OC)(c3ccccc3)CC2)C1c1ccc(F)c(F)c1 (stereo not drawn) | 55 to 57
CC1N=Cc2cc(Cl)ccc2-n2c(Cc3ccccc3)nnc21 (stereo not drawn) | 195 to 197
O=C(NCc1ccc(Cl)cc1)c1cn(Cc2cccnc2)c2sc(CN3CCOCC3)cc2c1=O | 214 to 215
CNC(Cc1cc(Br)ccc1N)c1ccsc1C (stereo not drawn) | 72.5 to 74
CC1(c2cn(-c3c(Cl)cc(C(F)(F)F)cc3Cl)nc2C#N)CC1 | 138 to 139
CCOCn1cc(C(C)=O)c2c(OC)cc(Br)nc21 | 114 to 116
Cc1cc2c(cc1O)C(C)(C)CC1(CC(C)(C)c3cc(OCCCn4ccnc4)c(C)cc3O1)O2 (stereo not drawn) | 209 to 211
COc1ccc2c(c1)N1CCOCC1CN=C2c1ccco1 (stereo not drawn) | 130 to 132
